experiment: Concentration required for inhibition of 5-alpha-Dihydrotestosterone (DHT) stimulated shionogi cell proliferation was determined; type: functional; details: Mus musculus

Question: With CN1C(=O)C=C[C@]2(C)C3CC[C@@]4(C)C(CC[C@@]4(O)C#CCCCl)C3CCC12 (some centres not stated) as the compound, how does the IC50 read?
Answer: 94.5 nM

Question: With CN1C(=O)CC[C@]2(C)C3CC[C@@]4(C)C(CC[C@@]4(O)C#CCCCI)C3CCC12 (some centres not stated) as the compound, how does the IC50 read?
Answer: 328 nM

Question: With CN1C(=O)C=C[C@]2(C)C3CC[C@@]4(C)C(CC[C@@]4(O)C#CCCI)C3CCC12 (some centres not stated) as the compound, how does the IC50 read?
Answer: 96.8 nM

Question: Which IC50 does the source give for CN1C(=O)CC[C@]2(C)C3CC[C@@]4(C)C(CC[C@@]4(O)C#CCCBr)C3CCC12 (some centres not stated) here?
Answer: 279 nM

Question: For CN1C(=O)C=C[C@]2(C)C3CC[C@@]4(C)C(CC[C@@]4(O)C#CCCBr)C3CCC12 (some centres not stated), which IC50 is on record?
Answer: 142 nM

Question: For CN1C(=O)CC[C@]2(C)C3CC[C@@]4(C)C(CC[C@@]4(O)C#CCCCl)C3CCC12 (some centres not stated), which IC50 is on record?
Answer: 250 nM

Question: For CN1C(=O)CC[C@]2(C)C3CC[C@@]4(C)C(CC[C@@]4(O)C#CCCI)C3CCC12 (some centres not stated), which IC50 is on record?
Answer: 160 nM

Question: Which IC50 does the source give for CN1C(=O)C=C[C@]2(C)C3CC[C@@]4(C)C(CC[C@@]4(O)C#CCCCI)C3CCC12 (some centres not stated) here?
Answer: 179 nM

Question: For CN1C(=O)C=C[C@]2(C)C3CC[C@@]4(C)C(CC[C@@]4(O)C#CCCCBr)C3CCC12 (some centres not stated), which IC50 is on record?
Answer: 149 nM

Question: Which IC50 does the source give for CC(C)(O)C(=O)Nc1ccc([N+](=O)[O-])c(C(F)(F)F)c1 [HYDROXYFLUTAMIDE] here?
Answer: 52.5 nM

Question: For CN1C(=O)CC[C@]2(C)C3CC[C@@]4(C)C(CC[C@@]4(O)C#CCCCCl)C3CCC12 (some centres not stated), which IC50 is on record?
Answer: 129 nM

Question: Which IC50 does the source give for CN1C(=O)C=C[C@]2(C)C3CC[C@@]4(C)C(CC[C@@]4(O)C#CCCCCl)C3CCC12 (some centres not stated) here?
Answer: 67.2 nM

Question: With CN1C(=O)CC[C@]2(C)C3CC[C@@]4(C)C(CC[C@@]4(O)C#CCCCBr)C3CCC12 (some centres not stated) as the compound, how does the IC50 read?
Answer: 325 nM

experiment: Concentration required for inhibition of 5-alpha-Dihydrotestosterone (DHT) stimulated shionogi cell proliferation was determined; No activity was observed at 1 uM; type: functional; details: Mus musculus

Question: With CN1C(=O)C=C[C@]2(C)C3CC[C@@]4(C)C(CC[C@@]4(O)C#CCCCO)C3CCC12 (some centres not stated) as the compound, how does the IC50 read?
Answer: > 1000 nM

Question: For CN1C(=O)C=C[C@]2(C)C3CC[C@@]4(C)C(CC[C@@]4(O)C#CCCO)C3CCC12 (some centres not stated), which IC50 is on record?
Answer: > 1000 nM

Question: For CN1C(=O)CC[C@]2(C)C3CC[C@@]4(C)C(CC[C@@]4(O)C#CCCO)C3CCC12 (some centres not stated), which IC50 is on record?
Answer: > 1000 nM

Question: Which IC50 does the source give for CN1C(=O)CC[C@]2(C)C3CC[C@@]4(C)C(CC[C@@]4(O)C#CCCCO)C3CCC12 (some centres not stated) here?
Answer: > 1000 nM

Reference: ChEMBL document CHEMBL1150478, “Synthesis and in vitro antiandrogenic activity of 17-hydroxy-17-(-hydroxy/haloalkyn-1-yl)-4-methyl-4-aza-3-oxo-5-androstan-(1-ene)-3-ones” (Bioorg Med Chem Lett, 1995)
